“Also recorded” adds a separate entry of the source.

For experiment [1], the system named is extracellular 5-HT level in the frontal cortex. Description: Microdialysis studies: extracellular 5-HT level in the frontal cortex of rats. Format: in vivo.
The subject of a further experiment is rats. Description: Forced swimming test (animal model of depression). Format: in vivo. Here is the method:
A typical animal model of depression is the “forced swimming test” (R. D. Porsolt et al., Nature 1977; 266(5604): 730-732), which is carried out with rats. This model is based on the behaviour known as “behavioural despair”, which the animals show in a hopeless situation known to them: If the rats are placed in a water-filled vessel (usually for 15 minutes) from which they cannot escape, they cease their attempts to escape from the situation after a certain time and remain in immobility or make only the most necessary swimming movements. If the rats are subjected to this situation again the next day, they recognise the hopelessness of the situation and remain in immobility for the majority of the time, and the time which the animals spend in immobility (which is regarded as surrogate for depression) during the 5-minute test duration serves as a measure of the depression. Anti-depressants shorten this immobility time. Fluoxetine (5 mg/kg perorally) and 2-BFI (3 and 10 mg/kg perorally) are administered—individually or combined—either in accordance with a repeated acute scheme (fluoxetine 24 h, 5 h and 2 h; 2-BFI 24 h, 5 h and 1 h before commencement of the test) or in accordance with a subchronic scheme (fluoxetine or 2-BFI once daily for 7 days, on the final day fluoxetine 2 h and 2-BFI 1 h before commencement of the test).

Another experiment has as its system mice. Kind of experiment: Marble burying test (animal model of anxiety states). Format: in vivo. The conditions noted are these: 3 mg/kg subcutaneously each substance, individually or combined at the same dose; 30 minutes test; FIG. 3. As for the experimental part: A typical animal model of anxiety states is the “marble burying test” (for example Njung'e and Handley, Br J Pharmacol 1991, 104: 105-112), which has, in particular, specificity for obsessive-compulsive disorders and obsessive-compulsive spectrum disorders. The experimental device consists of a cube-shaped box open at the top in which 25 clear glass marbles are arranged at uniform separations on a 5 cm deep layer of sawdust. Mice are placed individually in the test box for 30 minutes. The number of marbles buried in the sawdust during the test duration of 30 minutes serves as a measure of anxiety. Untreated mice bury the most marbles in the sawdust, anxiolytics reduce the number of buried marbles.

Experiment [2] deals with extracellular level of serotonin (5-HT) in the brain. The conditions noted are these: fluoxetine alone, even at a relatively high dose; literature (Artigas et al.); cited from earlier work.

On to `c1ccc2oc(C3=NCCN3)cc2c1` [2-BFI, 2-(2-benzofuranyl)-2-imidazoline], for which the “effect on the extracellular 5-HT level in the frontal cortex” value in experiment [1] (2-BFI alone, 20 mg/kg subcutaneously, FIG. 1) is “no effect”. Further, the immobility phase result was “does not reduce the immobility phase” with rats (repeated acute scheme, 2-BFI alone 3 and 10 mg/kg perorally, 24 h, 5 h and 1 h before test, FIG. 4); “Virtually identical effects” in the experiment on rats (subchronic scheme, once daily for 7 days, 2-BFI alone 3 and 10 mg/kg perorally, FIG. 5). The “number of buried marbles compared with vehicle-treated mice” value with mice is reported as “reduced the number of buried marbles only slightly”.
For `CNCCC(Oc1ccc(C(F)(F)F)cc1)c1ccccc1` (stereo not drawn) [fluoxetine], the “effect on the extracellular 5-HT level” value in experiment [1] (fluoxetine alone, 10 mg/kg intraperitoneally, FIG. 2, 10 mg/kg) is “slightly raises; also recorded: only a slight increase”. The “approximately three-fold increase of the extracellular 5-HT level” value in experiment [2] was “cannot be achieved”. Further, the immobility phase result is “only a negligible effect” in the experiment on rats (repeated acute scheme, fluoxetine alone 5 mg/kg perorally, 24 h, 5 h and 2 h before test, FIG. 4); “Virtually identical effects” with rats (subchronic scheme, once daily for 7 days, fluoxetine alone 5 mg/kg perorally, FIG. 5). In the experiment on mice, the “number of buried marbles compared with vehicle-treated mice” value was “reduced the number of buried marbles only slightly”.

The values are drawn from patent publication US20080027140A1, “Combinations of Serotonin Reuptake Inhibitors and Imidazoline I 2 Agonists” (MERCK PATENT GMBH, priority 2004, published 2008).
